Source: ChEMBL document CHEMBL1743341, “Cytochrome p450 enzymes mechanism based inhibitors: common sub-structures and reactivity” (Curr Drug Metab, 2005)

Tests used:
[1] = biological target: T1, Cytochrome P450 2C9 (Homo sapiens, UniProt P11712); test: Mechanism based inhibition of human cytochrome P450 2C9 measured by tienilic acid 5-hydroxylation; type: ADME
[2] = biological target: T2, CYP2D6 (Homo sapiens, UniProt P10635); test: (§1) Mechanism based inhibition of human cytochrome P450 2D6 measured by bufurarol hydroxylation using liver microsomes; type: ADME, Microsome; settings: probe bufurarol
[3] = biological target: T3, Cytochrome P450 2D6 (Homo sapiens, UniProt P10635); test: as §1; type: ADME, Microsome
[4] = biological target: T4, Cytochrome P450 2C8 (Homo sapiens, UniProt P10632)
T4 sequence (P10632 whole entry): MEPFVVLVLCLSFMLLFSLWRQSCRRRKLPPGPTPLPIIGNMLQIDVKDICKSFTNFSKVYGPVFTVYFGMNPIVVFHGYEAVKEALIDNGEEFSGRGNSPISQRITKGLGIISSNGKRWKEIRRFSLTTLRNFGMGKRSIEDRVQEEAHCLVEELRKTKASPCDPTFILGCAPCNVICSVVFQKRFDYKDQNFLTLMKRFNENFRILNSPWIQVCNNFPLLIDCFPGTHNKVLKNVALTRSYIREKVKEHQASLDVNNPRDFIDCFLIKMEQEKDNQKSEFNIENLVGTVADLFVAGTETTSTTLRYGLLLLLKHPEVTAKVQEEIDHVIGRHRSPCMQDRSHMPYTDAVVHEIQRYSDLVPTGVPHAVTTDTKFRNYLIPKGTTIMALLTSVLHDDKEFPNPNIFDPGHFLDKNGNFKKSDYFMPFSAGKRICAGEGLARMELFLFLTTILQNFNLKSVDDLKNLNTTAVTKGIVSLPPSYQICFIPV
Description: (§7) Mechanism based inhibition of human cytochrome P450 2C8 measured by paclitaxel hydroxylation using human liver microsomes

[5] = biological target: T4, Cytochrome P450 2C8; remark: listed apart in the source
Description: (§8) Mechanism based inhibition of human cytochrome P450 2C8 measured by paclitaxel hydroxylation using a recombinant system

[6] = biological target: T5, CYP2C8 (Homo sapiens, UniProt P10632); test: in vitro; settings: human liver microsomes, probe paclitaxel
T5 sequence (P10632 whole entry): T4 sequence (P10632 whole entry)
Description: as §7

[7] = biological target: T5, CYP2C8; test: in vitro; settings: recombinant CYP2C8, probe paclitaxel
Description: as §8

[8] = biological target: T2, CYP2D6; test: (§2) Mechanism based inhibition of human cytochrome P450 2D6 measured by dextromethorphan O-demethylation; settings: human, probe dextromethorphan
[9] = biological target: T3, Cytochrome P450 2D6; test: as §2
[10] = biological target: T6, Cytochrome P450 3A4 (Homo sapiens, UniProt P08684); test: (§3) Mechanism based inhibition of human cytochrome P450 3A4; type: ADME
[11] = biological target: T6, Cytochrome P450 3A4; test: as §3; type: ADME; remark: listed apart in the source
[12] = biological target: T6, Cytochrome P450 3A4; test: Mechanism based inhibition of human cytochrome P450 3A4 measured by midazolam hydroxylation in vivo; type: ADME, organism-based
[13] = biological target: T2, CYP2D6; test: (§4) Mechanism based inhibition of human cytochrome P450 2D6 measured by dextromethorphan O-demethylation using human liver microsomes; type: ADME, Microsome; settings: human, human liver microsomes, probe dextromethorphan
[14] = biological target: T3, Cytochrome P450 2D6; test: as §4; type: ADME, Microsome
[15] = biological target: T2, CYP2D6; test: (§5) Mechanism based inhibition of human cytochrome P450 2D6 measured by dextromethorphan O-demethylation using recombinant CYP2D6; type: ADME; settings: human, recombinant CYP2D6, probe dextromethorphan
[16] = biological target: T3, Cytochrome P450 2D6; test: as §5; type: ADME
[17] = biological target: CYP2E1 (Homo sapiens, UniProt P05181); test: (§6) Mechanism based inhibition of human cytochrome P450 2E1; type: ADME; settings: human
[18] = biological target: Cytochrome P450 2E1 (Homo sapiens, UniProt P05181); test: as §6; type: ADME
[19] = biological target: T7, Cytochrome P450 2B1 (Rattus norvegicus, UniProt P00176); test: Mechanism based inhibition of rat cytochrome P450 CYP2B1 measured by 7-EFC O-deethylation activity; type: ADME; settings: rat
T7 sequence (P00176 whole entry): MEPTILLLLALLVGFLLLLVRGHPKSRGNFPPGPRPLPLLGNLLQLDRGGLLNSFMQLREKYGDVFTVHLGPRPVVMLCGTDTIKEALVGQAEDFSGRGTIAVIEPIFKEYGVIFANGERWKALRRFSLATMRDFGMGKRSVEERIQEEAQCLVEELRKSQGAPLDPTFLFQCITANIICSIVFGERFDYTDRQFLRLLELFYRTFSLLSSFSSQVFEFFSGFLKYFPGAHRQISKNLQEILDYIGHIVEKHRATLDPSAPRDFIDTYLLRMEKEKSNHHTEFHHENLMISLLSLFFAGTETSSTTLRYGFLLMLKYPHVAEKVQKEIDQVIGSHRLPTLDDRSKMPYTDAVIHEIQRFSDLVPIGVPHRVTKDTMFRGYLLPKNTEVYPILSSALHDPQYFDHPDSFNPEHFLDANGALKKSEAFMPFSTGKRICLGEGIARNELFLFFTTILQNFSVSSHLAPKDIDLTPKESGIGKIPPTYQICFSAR

[20] = biological target: T4, Cytochrome P450 2C8; remark: listed apart in the source
Description: as §7

[21] = biological target: T5, CYP2C8; test: in vitro; settings: human liver microsomes, probe paclitaxel; remark: listed apart in the source
Description: as §7

[22] = biological target: T8, Cytochrome P450 2B6 (Homo sapiens, UniProt P20813); test: Mechanism based inhibition of human cytochrome P450 2B6; type: ADME
T8 sequence (P20813 whole entry): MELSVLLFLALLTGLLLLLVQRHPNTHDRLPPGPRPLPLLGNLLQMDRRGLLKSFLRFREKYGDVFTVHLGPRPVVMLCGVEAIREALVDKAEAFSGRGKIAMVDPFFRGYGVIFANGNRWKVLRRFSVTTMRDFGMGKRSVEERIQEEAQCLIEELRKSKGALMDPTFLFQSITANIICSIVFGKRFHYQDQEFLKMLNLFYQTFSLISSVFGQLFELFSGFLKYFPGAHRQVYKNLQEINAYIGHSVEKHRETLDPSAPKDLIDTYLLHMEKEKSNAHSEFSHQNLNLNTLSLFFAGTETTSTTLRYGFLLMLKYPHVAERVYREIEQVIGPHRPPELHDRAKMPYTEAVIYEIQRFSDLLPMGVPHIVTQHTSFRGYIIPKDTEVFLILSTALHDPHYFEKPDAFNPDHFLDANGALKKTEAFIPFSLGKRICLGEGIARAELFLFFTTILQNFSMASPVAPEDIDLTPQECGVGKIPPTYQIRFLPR

[23] = biological target: Cytochrome P450 2C19 (Homo sapiens, UniProt P33261); test: Mechanism based inhibition of human cytochrome P450 2C19; type: ADME
[24] = biological target: T1, Cytochrome P450 2C9; test: Mechanism based inhibition of human cytochrome P450 2C9; type: ADME
[25] = biological target: T6, Cytochrome P450 3A4; test: Mechanism based inhibition of human cytochrome P450 3A4 measured by 1'-hydroxymidazolam production; type: ADME

T6 sequence (P08684 whole entry): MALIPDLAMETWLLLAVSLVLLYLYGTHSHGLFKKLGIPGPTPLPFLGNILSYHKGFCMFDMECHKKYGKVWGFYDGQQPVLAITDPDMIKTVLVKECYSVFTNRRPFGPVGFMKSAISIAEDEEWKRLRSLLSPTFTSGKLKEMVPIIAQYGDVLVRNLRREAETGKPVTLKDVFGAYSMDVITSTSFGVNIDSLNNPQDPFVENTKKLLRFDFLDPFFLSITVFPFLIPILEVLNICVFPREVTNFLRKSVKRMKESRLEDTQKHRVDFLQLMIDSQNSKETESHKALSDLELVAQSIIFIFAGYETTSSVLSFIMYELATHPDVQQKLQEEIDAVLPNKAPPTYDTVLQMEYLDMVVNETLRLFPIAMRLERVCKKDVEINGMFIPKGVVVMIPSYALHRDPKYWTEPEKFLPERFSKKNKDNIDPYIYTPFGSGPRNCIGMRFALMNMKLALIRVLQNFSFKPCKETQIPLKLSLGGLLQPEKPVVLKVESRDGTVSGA
T2 sequence (P10635 whole entry): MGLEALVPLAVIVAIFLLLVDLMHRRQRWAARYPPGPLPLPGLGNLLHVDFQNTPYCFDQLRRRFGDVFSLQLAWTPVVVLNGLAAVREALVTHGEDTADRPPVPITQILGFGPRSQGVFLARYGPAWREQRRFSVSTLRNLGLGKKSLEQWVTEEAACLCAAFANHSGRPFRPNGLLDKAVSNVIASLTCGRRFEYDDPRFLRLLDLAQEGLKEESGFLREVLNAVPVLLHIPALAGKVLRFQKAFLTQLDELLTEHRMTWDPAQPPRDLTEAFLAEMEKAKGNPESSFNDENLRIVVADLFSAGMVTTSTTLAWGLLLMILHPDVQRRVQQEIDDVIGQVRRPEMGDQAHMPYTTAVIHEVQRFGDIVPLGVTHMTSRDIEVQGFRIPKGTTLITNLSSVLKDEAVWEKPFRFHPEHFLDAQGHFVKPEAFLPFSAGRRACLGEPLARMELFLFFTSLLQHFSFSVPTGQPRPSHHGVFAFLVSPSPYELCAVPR
T3 sequence (P10635 whole entry): as above
T1 sequence (P11712 whole entry): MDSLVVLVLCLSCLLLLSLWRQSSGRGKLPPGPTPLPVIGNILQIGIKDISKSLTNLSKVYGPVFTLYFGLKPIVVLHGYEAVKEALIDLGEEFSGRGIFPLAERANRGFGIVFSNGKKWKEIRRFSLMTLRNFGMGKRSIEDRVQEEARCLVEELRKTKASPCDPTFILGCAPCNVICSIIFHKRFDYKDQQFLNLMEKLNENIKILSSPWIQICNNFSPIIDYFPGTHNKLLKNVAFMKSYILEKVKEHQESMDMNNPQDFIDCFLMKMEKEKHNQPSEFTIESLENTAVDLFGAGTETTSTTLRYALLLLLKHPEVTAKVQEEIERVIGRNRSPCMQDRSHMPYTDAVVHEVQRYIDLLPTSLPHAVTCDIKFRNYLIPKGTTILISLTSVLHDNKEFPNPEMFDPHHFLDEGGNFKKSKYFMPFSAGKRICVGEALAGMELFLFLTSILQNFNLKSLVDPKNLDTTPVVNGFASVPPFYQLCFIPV
Sequence of Cytochrome P450 2E1 (P05181 whole entry): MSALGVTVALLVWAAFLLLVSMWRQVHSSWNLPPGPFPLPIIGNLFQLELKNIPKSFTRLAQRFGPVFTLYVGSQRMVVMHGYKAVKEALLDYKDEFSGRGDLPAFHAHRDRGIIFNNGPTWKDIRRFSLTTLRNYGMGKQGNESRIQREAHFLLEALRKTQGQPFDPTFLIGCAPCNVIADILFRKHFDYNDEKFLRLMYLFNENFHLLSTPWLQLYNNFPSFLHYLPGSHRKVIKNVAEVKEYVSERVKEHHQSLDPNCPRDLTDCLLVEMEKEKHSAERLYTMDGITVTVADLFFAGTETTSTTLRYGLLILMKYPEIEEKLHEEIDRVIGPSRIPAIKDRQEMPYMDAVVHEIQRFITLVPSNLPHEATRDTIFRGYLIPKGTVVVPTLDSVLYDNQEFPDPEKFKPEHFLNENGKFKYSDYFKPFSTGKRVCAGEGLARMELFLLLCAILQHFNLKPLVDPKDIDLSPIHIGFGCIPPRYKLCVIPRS
Sequence of CYP2E1 (P05181 whole entry): as above
Sequence of Cytochrome P450 2C19 (P33261 whole entry): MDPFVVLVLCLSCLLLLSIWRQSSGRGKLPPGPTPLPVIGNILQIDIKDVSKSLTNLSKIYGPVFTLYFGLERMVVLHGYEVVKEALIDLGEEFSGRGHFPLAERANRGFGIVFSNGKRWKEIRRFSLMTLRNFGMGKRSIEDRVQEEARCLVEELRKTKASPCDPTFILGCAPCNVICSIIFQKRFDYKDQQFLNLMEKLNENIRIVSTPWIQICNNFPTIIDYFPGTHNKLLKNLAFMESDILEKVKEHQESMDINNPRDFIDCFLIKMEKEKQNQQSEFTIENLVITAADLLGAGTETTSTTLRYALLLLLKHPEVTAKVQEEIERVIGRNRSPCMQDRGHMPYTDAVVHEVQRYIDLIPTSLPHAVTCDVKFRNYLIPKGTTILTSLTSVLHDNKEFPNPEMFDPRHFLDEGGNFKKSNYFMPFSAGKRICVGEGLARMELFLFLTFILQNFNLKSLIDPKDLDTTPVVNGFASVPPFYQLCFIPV

O=C(O)COc1ccc(C(=O)c2cccs2)c(Cl)c1Cl
mechanism based inhibition [1]: Cytochrome P450 mechanistic inhibitor: PMID 8944768

CCN(CC1CCN(S(C)(=O)=O)CC1)[C@@H](C)Cc1ccc2c(c1)CCO2
kinact [2]: 0.38 s⁻¹ | Ki [3]: 1.42 µM

CCCCc1oc2ccccc2c1C(=O)c1cc(I)c(OCCN(CC)CC)c(I)c1 [AMIODARONE]
Ki [4]: 51.2 µM | Ki [5]: 1.5 µM | kinact [6]: 0.000483 s⁻¹ | kinact [7]: 0.00132 s⁻¹

CN/C(=N/CCSCc1nc[nH]c1C)NC#N [CIMETIDINE]
kinact [8]: 0.0005 s⁻¹ | Ki [9]: 77 µM

C#C[C@]1(O)C=C[C@H]2[C@@H]3CCC4=CC(=O)CC[C@@H]4[C@H]3CC[C@@]21CC [GESTODENE]
mechanism based inhibition [10]: Cytochrome P450 mechanistic inhibitor: PMID 9385444 | mechanism based inhibition [11]: Cytochrome P450 mechanistic inhibitor: PMID 2133086 | mechanism based inhibition [12]: Cytochrome P450 mechanistic inhibitor: PMID 11012556

CNC(C)Cc1ccc2c(c1)OCO2 (configuration not stated) [MIDOMAFETAMINE]
kinact [13]: 0.00283 s⁻¹ | Ki [14]: 22.8 µM | kinact [15]: 0.00483 s⁻¹ | Ki [16]: 12.9 µM

S=C=NCCc1ccccc1 [PHENETHYLISOTHIOCYANATE]
kinact [17]: 0.00565 s⁻¹ | Ki [18]: 9.98 µM | mechanism based inhibition [19]: Cytochrome P450 mechanistic inhibitor: PMID 11454729

NNCCc1ccccc1 [PHENELZINE]
Ki [20]: 54.3 µM | Ki [5]: 1.2 µM | kinact [21]: 0.00283 s⁻¹ | kinact [7]: 0.00405 s⁻¹

Cn1cc[nH]c1=S [METHIMAZOLE]
mechanism based inhibition [22]: Cytochrome P450 mechanistic inhibitor: PMID 9172960 | mechanism based inhibition [23]: Cytochrome P450 mechanistic inhibitor: PMID 9172960 | mechanism based inhibition [24]: Cytochrome P450 mechanistic inhibitor: PMID 9172960

CCc1nn(CCCN2CCN(c3cccc(Cl)c3)CC2)c(=O)n1CCOc1ccccc1 [NEFAZODONE]
mechanism based inhibition [25]: Cytochrome P450 mechanistic inhibitor: PMID 15523046
